How the values were obtained:
Experiment in all cases: relative viability (nuclei count vs DMSO), 5 days (fraction); higher = more cells survive
Axitinib + Crizotinib = compound: CNC(=O)c1ccccc1Sc1ccc2c(/C=C/c3ccccn3)n[nH]c2c1 [Axitinib] + C[C@@H](Oc1cc(-c2cnn(C3CCNCC3)c2)cnc1N)c1c(Cl)ccc(F)c1Cl [Crizotinib] (partner 1 µM)
Procedure, shortened: (§1)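 After 5 days of treatment, lung cancer cells in 1536-well plates were fixed and stained in a single step (final 0.05% Triton X-100, 1% formaldehyde, 1 ug/ml Hoechst) and their nuclei counted on 4× images. Treatment had been applied by pin tool the day after seeding as one drug alone or as a fixed anchor-drug dose with five library-drug doses (not always all listed) in √10 steps. Relative viability is the nuclei count of treated wells divided by that of vehicle wells, and values are medians of duplicate plates.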

Axitinib + Alpelisib = compound: CNC(=O)c1ccccc1Sc1ccc2c(/C=C/c3ccccn3)n[nH]c2c1 [Axitinib] + Cc1nc(NC(=O)N2CCC[C@H]2C(N)=O)sc1-c1ccnc(C(C)(C)C(F)(F)F)c1 [Alpelisib] (partner 2 µM)
Procedure, shortened: as §1

Bemcentinib + Alpelisib = compound: Nc1nc(Nc2ccc3c(c2)CC[C@@H](N2CCCC2)CC3)nn1-c1cc2c(nn1)-c1ccccc1CCC2 [Bemcentinib] + Cc1nc(NC(=O)N2CCC[C@H]2C(N)=O)sc1-c1ccnc(C(C)(C)C(F)(F)F)c1 [Alpelisib] (partner 2 µM)
Procedure, shortened: as §1

[1] = compound: CC1=CC=C(C=C1)C(=O)CN2C3=C(CCCC3)SC2=N [Pifithrin_alpha] + Cc1nc(NC(=O)N2CCC[C@H]2C(N)=O)sc1-c1ccnc(C(C)(C)C(F)(F)F)c1 [Alpelisib] (partner 2 µM)
Procedure, shortened: as §1

Cell Line | relative viability (Axitinib + Crizotinib; first compound 0.005 µM) | relative viability (Axitinib + Crizotinib; first compound 0.01581 µM) | relative viability (Axitinib + Crizotinib; first compound 0.05 µM) | relative viability (Axitinib + Crizotinib; first compound 0.1581 µM) | relative viability (Axitinib + Crizotinib; first compound 0.5 µM) | relative viability (Axitinib + Alpelisib; first compound 0.005 µM) | relative viability (Axitinib + Alpelisib; first compound 0.01581 µM) | relative viability (Axitinib + Alpelisib; first compound 0.05 µM) | relative viability (Axitinib + Alpelisib; first compound 0.1581 µM) | relative viability (Axitinib + Alpelisib; first compound 0.5 µM) | relative viability (Bemcentinib + Alpelisib; first compound 0.04 µM) | relative viability (Bemcentinib + Alpelisib; first compound 0.1265 µM) | relative viability (Bemcentinib + Alpelisib; first compound 0.4 µM) | relative viability (Bemcentinib + Alpelisib; first compound 1.265 µM) | relative viability (Bemcentinib + Alpelisib; first compound 4 µM) | relative viability ([1]; first compound 1 µM) | relative viability ([1]; first compound 3.162 µM) | relative viability ([1]; first compound 10 µM) | relative viability ([1]; first compound 31.62 µM) | relative viability ([1]; first compound 100 µM)
NCI-H322M | 0.889 | 0.828 | 0.926 | 0.888 | 0.889 | 0.834 | 0.688 | 0.729 | 0.944 | 0.893 | 0.897 | 0.864 | 0.855 | 0.85 | 0.937 | 0.777 | 0.651 | 0.802 | 0.581 | 0.87
NCI-H358 | 0.401 | 0.636 | 0.625 | 0.549 | 0.596 | 1.03 | 0.898 | 0.806 | 0.738 | 1.05 | 0.97 | 0.826 | 1.04 | 0.826 | 0.971 | 0.895 | 0.958 | 0.87 | 0.566 | 0.687
NCI-H441 | 0.69 | 0.797 | 0.654 | 0.794 | 0.853 | 0.79 | 0.72 | 0.965 | 0.561 | 0.852 | 0.86 | 0.74 | 0.756 | 0.467 | 0.976 | 0.942 | 0.859 | 0.673 | 0.708 | 0.85
NCI-H460 | 1.05 | 0.876 | 0.915 | 0.816 | 1.13 | 0.569 | 0.571 | 0.54 | 0.549 | 0.821 | 0.595 | 0.556 | 0.487 | 0.602 | 0.584 | 0.529 | 0.57 | 0.384 | – | 0.305
NCI-H520 | 0.72 | 0.829 | 0.734 | 0.542 | 0.776 | 0.923 | 0.951 | 0.91 | 0.784 | 0.899 | 0.917 | 1.11 | 1.2 | 1.01 | 0.919 | 1.02 | 1.24 | 0.698 | 0.472 | 0.842
NCI-H596 | 1.03 | 1.06 | 1.06 | 0.993 | 0.495 | 0.503 | 0.624 | 0.531 | 0.599 | 0.553 | 0.574 | 0.612 | 0.524 | 0.537 | 0.392 | 0.373 | 0.452 | 0.492 | 0.532 | 0.443
NCI-H647 | 1.12 | 1.01 | 1.04 | 1.09 | 1.23 | 1.27 | 1.24 | 1.28 | 1.11 | 1.6 | 1.1 | 1.22 | 1.25 | 1.13 | 1.08 | 1.07 | 1.06 | 0.992 | – | 0.736
NCI-H661 | 0.976 | 1.03 | 0.995 | 1.02 | 1.08 | 0.613 | 0.509 | 1.02 | 0.862 | 0.511 | 0.374 | 0.821 | 0.624 | 0.358 | 0.599 | 0.528 | 0.552 | 0.623 | 0.63 | 0.73
NCI-H727 | 0.823 | 0.693 | 0.872 | 0.793 | 0.985 | 0.612 | 0.524 | 1.43 | 0.538 | 0.783 | 0.528 | 0.576 | 0.492 | 0.491 | 0.621 | 0.55 | 0.533 | 0.512 | 0.415 | 0.492
NCI-H838 | 0.852 | 0.945 | 0.874 | 0.886 | 0.953 | 1.12 | 1 | 1.05 | 1 | 1.18 | 0.961 | 1.19 | 1.08 | 1.01 | 1.04 | 0.909 | 0.834 | 0.812 | 0.694 | 0.733
NCI-H1299 | 0.997 | 0.947 | 0.986 | 1 | 1.04 | 0.987 | 1.01 | 1.06 | 1.06 | 1.1 | 1.1 | 1.07 | 1.09 | 1.1 | 1.08 | 1.1 | 1.09 | 1.07 | 0.874 | 1.18
NCI-H1355 | 1.13 | 1.06 | 1.1 | 0.948 | 1.29 | 0.891 | 0.825 | 0.794 | 0.897 | 0.909 | 0.905 | 0.915 | 0.778 | 0.902 | 0.965 | 0.732 | 0.587 | 0.559 | 0.489 | 0.591
NCI-H1437 | 1.07 | 0.927 | 0.863 | 0.934 | 0.93 | 1.01 | 1.01 | 1.01 | 0.929 | 1.06 | 0.961 | 1.03 | 1.16 | 1.01 | 1.01 | 1.12 | 1.01 | 0.933 | 0.749 | 0.989
NCI-H1563 | 0.957 | 0.791 | 0.877 | 0.833 | 0.907 | 1.04 | 0.916 | 0.951 | 0.892 | 0.986 | 0.93 | 1.07 | 0.943 | 0.926 | 0.839 | 0.967 | 0.919 | 0.936 | 0.922 | 0.82
NCI-H1651 | 0.904 | 0.858 | 0.707 | 0.842 | 0.861 | 1.03 | 0.944 | 0.971 | 0.937 | 1.12 | 0.935 | 1.01 | 1.12 | 0.964 | 1.02 | 0.884 | 0.933 | 0.908 | 0.685 | 0.989
NCI-H1666 | 1.29 | 0.97 | 1.12 | 0.931 | 1.14 | 1.12 | 0.918 | 0.942 | 1.05 | 1.1 | 0.869 | 1.05 | 0.941 | 1.02 | 1.02 | 0.771 | 0.577 | 0.527 | 0.479 | 0.352

Reference: the supplement of paper PMC10307832
